The values that follow come from US6890954B1, “Uses of 2-bromopalmitate in the treatment of autoimmune disease” (priority 1999, dated 2005).

What all share (assay type): cell-based
Assay [1] has as its system Fyn. Put plainly: Subcellular fractionation (P100/S100) of Fyn in COS-1 cells. As to the method: Each 60 mm plate of Fyn transfected COS-1 cells was starved for […] in DMEM containing 2.5% FBS and 0.5% defatted BSA with or without 100 μM 2-bromopalmitate. After overnight culture at 37° C., the cells were fractionated into P100 and S100 fractions, immunoprecipitated with anti-Fyn antibody, subjected to SDS-PAGE, and immunoblotted with anti-Fyn antibody as previously described (9,12,13).
For analysis of newly synthesized Fyn, cells were cultured overnight as descibed above, then starved for 1 hr in DMEM minus methionine and cysteine containing 2% dialyzed FBS, 0.5% defatted BSA with or without 100 μM 2-bromopalmitate. Cells were labeled for 5 minutes with Trans^35S-Label (ICN, Irvine, Calif.), then fractionated as described above. Gels were treated for 20 minutes with 1M salicylic acid prior to drying. The Gαo(10)-Fyn chimera was labeled for 5 min and GAP-43 Fyn chimera was labeled for 2 hours and fractionated according to the above conditions.
Newly synthesized Fyn becomes plasma membrane bound within 5 minutes after biosynthesis (12). The rapid membrane targeting is dependent on dual fatty acylation of Fyn with myristate and palmitate. The effect of 2-bromopalmitate on the ability of newly synthesized Fyn to localize to membranes was next examined. Transfected COS-1 cells were incubated for 12-16 hours with or without 100 μM 2-bromopalmitate. […]

Assay [2] deals with Fyn. Put plainly: Localization of Fyn to Triton X-100 insoluble fractions in COS-1 cells. As to conditions: COS-1, 1% Triton X-100 extraction; untreated: majority detergent resistant. As to the method:
(§1) Isolation of Triton X-100 resistant and soluble fractions was carried out as described previously (12). Isolation of detergent resistant microdomains by sucrose gradients were carried out as follows (19): Jurkat cells (5×10^7) were treated with 2-bromopalmitate, activated with OKT3 mAb as described above, and lysed in 1 ml lysis buffer (25 mM MES pH 6.5, 150 mM NaCl, 0.5% Triton X-100, 1 mM Na3VO4) supplemented with protease inhibitors for 30 minutes at 0° C. After homogenizing 10 times with a loose fit Dounce homogenizer, lysates were mixed with 1 ml 85% sucrose in MBS (25 mM MES pH 6.5, 150 mM NaCl), and overlayered with 6 ml 30% sucrose in MBS, then with 4 ml 5% sucrose in MBS. Following centrifugation for 16 hours at 145,000 g in an SW40 rotor, 1 ml fractions were collected and analyzed by PAGE and immunoblotting with anti-Fyn, anti-LAT, or anti-Lck antibodies.
Previous experiments have shown that following rapid membrane binding of newly synthesized Fyn, there is a slower partitioning of Fyn (10-20 minutes) to regions of the plasma membrane that are resistant to Triton X-100 extraction at 4° C. (12). Therefore the effect of 2-bromopalmitate on the localization of Fyn to Triton X-100 insoluble fractions was examined. Transfected COS-1 cells were left untreated or treated with 2-bromopalmitate as described above. […]

The test system of assay [3] is G2A,C3SFyn-HRas and G12V H-Ras. Nature of the assay: Membrane localization of the two Ras constructs in COS-1 cells. As to conditions: COS-1, 2-bromopalmitate overnight. As to the method: Analysis of the G2A,C3S Fyn-HRas chimera was performed according to the procedure described above. Analysis of the G12V HRas construct was according to the procedure described above, except that the samples were not immunoprecipiated, and were subjected to immunoblotting with anti-HRas antibody.
Each of these three sequences was appended onto the Fyn protein. Gαo(10)-Fyn and GAP43(10)-Fyn are chimeric constructs with the first 10 amino acids of Gαo or GAP-43, respectively, in place of the first 10 amino acids of wt Fyn. These constructs have been previously described (12,13). In addition, the H-Ras tail was fused to the C-terminus of a non-acylated Fyn mutant (G2A,C3SFyn-HRas). This construct contains full length Fyn with mutations in the N-terminal myristoylation and palmitoylation sites, but with the C-terminus of H-Ras available for prenylation and palmitoylation.
Finally, an oncogenic G12V full length H-Ras construct was tested. […] In contrast, 2-bromopalmitate had only a minimal effect on the membrane localization of the two Ras constructs, inducing a 10-20% shift from membrane to cytosol (FIGS. 3C and D). The G12V H-Ras construct migrates as a doublet on a gel. The slower migrating form represents the non-processed cytosolic form of H-Ras, and the faster migrating form represents the processed Ras, which is membrane bound.

The test system of assay [4] is Lck. Nature of the assay: DRM (raft) localization in activated Jurkat cells, sucrose gradient: Lck. As to conditions: 100 μM 3 hours, OKT3 activated, control 59%. Here is the method:
as §1
(§2) The ability of 2-bromopalmitate to inhibit localization of palmitoylated proteins to detergent resistant microdomains in activated Jurkat cells was examined next. Cells were either left untreated or treated with 100 μM 2-bromopalmitate for 3 hours, washed, resuspended in serum-free media, and the TCR was activated with OKT3 mAb. Activated cells were extracted with Triton X-100 containing buffer. […] Each fraction was analyzed by immunoblotting with specific antibodies. […]

For assay [5], the system named is Fyn. Put plainly: DRM (raft) localization in activated Jurkat cells, sucrose gradient: Fyn. As to conditions: 100 μM 3 hours, OKT3 activated, control 88%. As to the method: as §1, §2

On to `CCCCCCCCCCCCCCC(Br)C(=O)O` (stereo not drawn) [2-bromopalmitate], for which the “newly synthesized Fyn remaining cytosolic” value in assay [1] (COS-1, 100 μM for 12-16 hours, 5 min 35S label, untreated 90% membrane bound) turned out to be 50%. In addition, in assay [1] (COS-1, 100 μM, Western blot, data not shown), the “steady-state Fyn fractionating in the cytosol” value was determined as 50%. For the same compound, the “Fyn association with detergent resistant vs soluble fraction” value in assay [2] was “mostly soluble”. In addition, in assay [3], the “shift from membrane to cytosol of the two Ras constructs” value is reported as 10-20%. Besides, the “Lck found in the rafts” value in assay [4] was 19%. Besides, in assay [5], the “Fyn found in the rafts” value amounted to 59%.
